ChEMBL document CHEMBL3507680, “University of Dundee, Gates Library screen for HepG2 cell viability”

assay: Human HepG2 cell viability assay in 384 well format; type: toxicity, cell-based; set-up: dose 125 nL, time 70.5 hour; concentration not given beside the values; conditions: HepG2 cells, read-out: Inhibition

SMILES	cytotoxicity at 70.5 h [%]
COc1ccc(NC(=O)Cn2nc(C)c(C)cc2=O)cc1Cl	0.971
O=C(NCC(c1cccs1)N1CCOCC1)c1ccc(F)cc1Cl (centres undefined)	-5.9
CCc1nc(C(=O)N2CCN(C(=O)CCc3ccccc3)CC2)c[nH]1	-6.61
Cc1ccc(C(=O)N2CCCC(n3cccn3)C2)cc1S(C)(=O)=O (centres undefined)	0.0611
O=C(NCc1ccc2[nH]c(=O)[nH]c2c1)c1ccc(CN2CCCC2)o1	-9.98
CN(C(=O)c1ccc(C#N)cc1)C1CCN(c2ccccn2)CC1	12.7
COc1cc(C(=O)O)ccc1OCC(=O)NC(C)c1ccc(F)cc1 (centres undefined)	-5.08
COc1cccc(OC2CN(C(=O)c3ccoc3C)C2)c1	10.7
CC(=O)N1CCCC(Cc2cncc(Br)c2)CC1 (centres undefined)	19.5
O=C1NCC2(CCCN(Cc3ccc(F)cc3)C2)Oc2ccccc21 (centres undefined)	-1.98
CC(Sc1n[nH]c(-c2ccc3c(c2)CCC3)n1)C(N)=O (centres undefined)	0.8
CCS(=O)(=O)NCC(=O)N(C1CC1)C1Cc2ccccc2C1	-9.21
Nc1nc2c(c(N3CCCC(CN4CCCC4=O)C3)n1)CCNCC2 (centres undefined)	-5.58
O=C(CC1COCCN1)N1CCC2(CCc3ccccc32)CC1 (centres undefined)	8.47
Cc1ccc2c(c1)OC(C)CN2C(=O)Cc1ccc(C)nc1 (centres undefined)	-0.93
CSCC(=O)NS(=O)(=O)c1ccc2c(c1)OCCO2	0.628
O=c1cccnn1CC1CN(CC2CCCC2)Cc2nccn2C1 (centres undefined)	-5.89
COc1cc(Cl)ccc1CNC(=O)N(C)C(C)CS(C)(=O)=O (centres undefined)	-7.57
O=C(c1ccsc1)N1CC(c2nc(-c3ccc[nH]c3=O)no2)C1	12.8
Cn1nc(C(=O)N2CCCC(n3cncn3)C2)ccc1=O (centres undefined)	-7.35
Cc1cn2nc(N3CCCC3C(=O)N3CCOCC3)sc2n1 (centres undefined)	-15.3
COCC(=O)N1CCCN(Cc2cc(C(C)C)no2)CC1	12.3
O=C(CN1CCC2(CCCCC2)C1)NCC(F)(F)F	-9.38

SMILES	cytotoxicity at 70.5 h [%]
Cc1ccc(C2(O)CCN(Cc3nc(C)n4ccccc34)CC2)nc1	-9.79
Cc1ccc(C2CCCCCN2Cc2cn(C)nc2C)cc1 (centres undefined)	-12.1
Cn1cnnc1C1CCCN1C(=O)Nc1cccc(OC(F)F)c1 (centres undefined)	-1.48
CCn1cnnc1CNC(=O)NC(c1cccs1)C1CCCC1 (centres undefined)	19.6
CCc1c(C)nc2ccccc2c1N1CCC(O)CC1	-3.88
c1cnn(-c2ccc(CN3CCOC(Cn4cncn4)C3)cc2)c1 (centres undefined)	18.2
N#Cc1ccc(OC[C@]23COC[C@H]2CN(Cc2ccoc2)C3)nc1	0.658
Cn1nc2c(cc1=O)CN(CCc1nc3ccccc3c(=O)[nH]1)CC2	1.45
CC(=O)NCCC(=O)NCc1cc(Br)ccc1OC(F)F	-7.14
Cc1cc(N)nc(SC2CCN(c3ccccc3)C2=O)n1 (centres undefined)	-2.2
O=C1NCCCCC1Sc1ccccc1F (centres undefined)	-11.2
CCCC(=O)N1CCc2c(CNS(C)(=O)=O)cncc2C1	-8.58
O=C1C(NS(=O)(=O)c2ccc(F)cc2)CCN1Cc1ccccc1 (centres undefined)	-13.4
CC(C)CC(=O)N1CC(=O)c2sc(Nc3ccc(C#N)cc3)nc2C1	0.0296
O=C(c1scc2c1OCCO2)N1CCOC(Cc2cccc(F)c2)C1 (centres undefined)	-5.83
O=C(NCCO)C1(Cc2cc(-c3ccc(F)cc3F)no2)CCOCC1	-12.3
Cn1cc(-c2cnc(N3CCOCC3)nc2)cc1C(=O)NC1CC1	23.6
Cc1nc2c(cc1C(=O)Nc1ccccc1Cl)c(=O)n(C)c(=O)n2C	-9.88
CNCc1cn(CC2CCN(Cc3cccs3)CC2)nn1	22.5
Cc1nc2ccccn2c1CN(Cc1cccnc1)CC1CCCO1 (centres undefined)	0.351
Cc1ccc2c(c1)c(CNC(=O)C1CCN(CC(N)=O)CC1)nn2C	-2.32
O=C(c1ccc[nH]1)N1CCn2cc(Cn3cccn3)nc2C1	-8.4
O=C(NCc1nc(NC2CCCC2)c2cc(Cl)ccc2n1)c1cncs1	-13.7

SMILES	cytotoxicity at 70.5 h [%]
Fc1cccc(CN2C[C@@H]3CN(Cc4ccccn4)C[C@@H]3C2)c1	-5.09
Cn1cnc2c1CCN(Cc1cccc(C(=O)N3CCCCC3)c1)C2	-7.19
CC(C)N(C)S(=O)(=O)N(C)Cc1cnn(Cc2ccccc2)c1	3.45
CCc1cnc(CN(C(C)=O)C2CCN(CC(=O)N3CCCC3)C2)o1 (centres undefined)	-4.28
Cc1nc(COC[C@@H]2CC[C@H]3[C@H](CCN3C(=O)C3CC3)O2)cs1	-7.97
Cc1cc(C)n(NC(=O)c2ccc(Cl)cc2Cl)c(=O)c1	-16.4
c1ccc(-n2cc(CN3CCCC(Cn4cncn4)C3)nn2)cc1 (centres undefined)	-7.1
O=C(Nc1cccnc1)N(Cc1ccccc1)C1CC1	-15.3
CN1CC(C(=O)NCc2ccc(Br)cc2F)CC1=O (centres undefined)	-14.4
CCn1c(C(=O)N2CCCN(CC(N)=O)CC2)cc2ccccc21	-3.29
O=C(Nc1ccc(CCN2CCOCC2)cc1)C1CC1	-4.46
Cc1cnc(CN(C)Cc2cc3c(cc2OC(F)F)OCO3)o1	0.766
O=C(NCc1ccco1)[C@@H]1CCO[C@@H]2CCN(C3CCOCC3)C[C@H]21	4.93
Cn1ccnc1CN1CCC(CNS(=O)(=O)c2cccnc2)C1 (centres undefined)	7.54
Cc1nc(CCN(C)C(=O)CN2CCCCCC2)no1	-9.68
CCOc1ccccc1-n1c(CNC)n[nH]c1=O	-2.54
COc1cccc(N2CCN(C(=O)CCO)CC2=O)c1	-8.46
O=C(CCCc1cn[nH]c1)N1C[C@@H](CN2CCCC2)C[C@H](CO)C1	-6.82
Cc1ccc(N2CCCN(C(=O)CCC3CCCO3)CC2)nn1 (centres undefined)	4.12
CNS(=O)(=O)CC(=O)N1CC2(CCCC2)c2c(F)cccc21	0.789
O=C(CSC1CCc2ccccc2NC1=O)NCc1ccccc1 (centres undefined)	6.38
CCC(NC(=O)NCC(=O)Nc1ccc(F)cc1)c1ccncc1 (centres undefined)	2.31
O=C(Cc1cn2ccsc2n1)N1CCCC(n2cccn2)C1 (centres undefined)	-3.32

SMILES	cytotoxicity at 70.5 h [%]
COc1cc(CCC(=O)NCC2CC2)ccc1OCC(F)(F)F	-11.6
CCOCCNS(=O)(=O)c1cc(C)c2nc(O)cc(C)c2c1	21
CCC(C)(N)c1nc(C(C)C)cc(=O)[nH]1 (centres undefined)	-4.71
Cn1ccnc1CN1CCC2(CCC(=O)N2CCN2CCCC2)CC1	-8.64
N#Cc1c(F)cccc1NCCCOCC1CCOCC1	-3.66
CC(C)c1cc(=O)[nH]c(-c2ccccc2CN2CCCCCC2)n1	-13.2
COCc1cn(C2CCN(C(=O)c3ccc(F)c(C)c3)CC2)nn1	-6.36
Cc1nc(C2CCCN2Cc2nc(C3CC3)no2)no1 (centres undefined)	-2.5
Cn1cccc1C(=O)N1CCCC2(CCCN2S(C)(=O)=O)C1 (centres undefined)	-8.52
Cc1csc(C(C)(C)NCC(=O)N2CCCC(C(N)=O)C2)n1 (centres undefined)	6.15
CN(Cc1nnc(C2CC2)o1)Cc1ccccc1-c1ccccc1	-9.25
Cc1cccc2cc(CNCCCN3CCOCC3)c(=O)[nH]c12	33.6
Fc1cnc(N2C[C@@H]3C[C@@H](c4nc(C5CC5)cs4)O[C@@H]3C2)nc1	-1.67
CC(C)Nc1cccc(C(=O)NCC(O)c2ccc(F)cc2F)c1 (centres undefined)	-1.19
O=C(NCC1(c2ccc(F)cc2)CCCC1)N1CCOC(CO)C1 (centres undefined)	2.92
CO[C@H]1C[C@@H](O)C12CCN(C(=O)CCCOc1ccccc1)CC2	-8.27
Cn1cc(-c2cnc(N3CCOCC3)nc2)cc1C(=O)N1CCOCC1	-22
Cc1cc(NC(=O)NC(C)CN2CCN(c3ccccc3)CC2)on1 (centres undefined)	-5.02
COc1ccc2c(c1)CN(C)C(=O)CCN2CC(O)C(C)(C)C (centres undefined)	-6.98
CCc1nc(C2CCCN2Cc2ncc(C)c(OC)c2C)no1 (centres undefined)	-5.08
Cc1ccc(C(NCC(=O)N2CCNC(=O)C2)C(F)(F)F)cc1 (centres undefined)	-113
CCc1ccc(C(=O)N2CC[C@H](Oc3cccnc3C)[C@@H](O)CC2)cc1	14.4
Cc1nc(O)cc(C2(C)CCCNC2)n1 (centres undefined)	-3.13

SMILES	cytotoxicity at 70.5 h [%]
O=C(NC1CCN(c2ncccc2F)C1)c1cccc(-n2ccnc2)c1 (centres undefined)	-9.37
Cc1ccc(CNC2CCCc3c2cnn3Cc2ccccc2)s1 (centres undefined)	-8.41
COc1ccc2cc(CN(C)CCN3CCCCC3=O)c(=O)[nH]c2c1	-12.2
COC[C@@H]1CN(C)C(=O)[C@@H]2CCN(Cc3ccco3)CC[C@H]12	-4.9
O=C(CN(Cc1ccco1)C1CC1)Nc1ccc(Br)cn1	-17.6
Cc1c2ncn(CC(=O)N(C)C)c(=O)c2nn1C	-8.37
COc1cccc(CN2CCC(Cc3cnc(CN(C)C)cn3)CC2)c1	22.5
c1nc(CCC2CCCN2)cc(N2CCCOCC2)n1 (centres undefined)	9.03
Cc1cccc2sc(NC(=O)CN3CCCC(O)(CO)C3)nc12 (centres undefined)	11
Cc1ccc(C2CN(c3nnc(C(F)F)s3)CCO2)c(C)c1 (centres undefined)	-4.44
Cc1csc(C2CCCCN2C(=O)c2cc(Cl)c[nH]2)n1 (centres undefined)	-0.326
CCn1c(C2CCCN(Cc3cc(F)ccc3OC)C2)nn(C)c1=O (centres undefined)	-9.41
CCOC(=O)CCC(=O)NC(C)c1ccc(NC(=O)CC)cc1 (centres undefined)	-3.08
c1cnc(N2C[C@H]3CCN(CC4CC4)C[C@H]3C2)cn1	3.82
O=C(Cn1ccc2ccccc21)NCc1ccc(C(=O)O)cc1	-10.6
CN(c1ncccc1CNC(=O)c1csnn1)C1CCCCC1	26.5
O=C(NCC1CCC2(CCNCC2)O1)C1CC1 (centres undefined)	2.18
Cc1cc(NC(=O)C(C)Nc2ccn(Cc3ccccn3)n2)on1 (centres undefined)	-10.1
CC(C)CS(=O)(=O)N1CCC2(CC1)CCn1c(-c3cnn(C)c3)cnc12	32.9
Cc1nn(C)c(N(C)C)c1CNCc1cccc(Cn2ccnc2)c1	3.64
c1ccc(Oc2cccc(OC34CCCN(CC3)C4)c2)cc1 (centres undefined)	-12
CC(=O)N1CCN(c2ccnc(C)n2)CC(COc2ccccc2)C1 (centres undefined)	-3.78
